Test results taken from US7767671B2, “3-Quinolinecarbonitrile protein kinase inhibitors” (Wyeth, priority 2004, dated 2010).

Experiments:
[1] = tested on: BxPC3; assay: Cell based screen for inhibitors of Raf and/or Mek kinase (SRB), BxPC3; details: Homo sapiens, BXPC-3, BxPC3 cells, (a)/(b) = average of two/three runs
Method: [The procedure below names another cell line; the source lists this cell line under the same test.] (§1) Cell Based Screen for Inhibitors of Raf and/or Mek Kinase. Materials
(§2) Cells are plated at 2000 cells per well for cell line LoVo and 1500 cells for cell line CaCo-2 in 96 well plates. Cells are plated in media (200 μl) and allowed to adhere overnight at 37° C. At 24 hours post plating, compounds are added directly at a volume of 0.5 μl. For the qualitative screen (compounds screened at 25 μM) compound is added directly to cells. For the quantitative screen, compound is first diluted in DMSO to generate concentrations of compound or reference standard of: 1, 5, 10 and 25 μM. It is advisable to make the dilutions in an identical 96 well plate so that compounds can be added using a multichannel micropipettor set at 0.5 μl. The cells are then incubated for four days after which the media is removed using a 12 well manifold by first tipping the plate forward at a 45 degree angle and then inserting the manifold in an upright orientation to prevent the tips of the manifold from disturbing cells at the bottom of the plate. 200 μl of normal saline is then added to each well using an 8 well multichannel pipettor, followed by the careful addition of 50 μl of 50% TCA. The plates are then incubated for 2 hours at 4° C., after which the supernatant is removed using the same technique as above and the plated cells are washed twice with 200 μl water. The plates are then air dried and 50 μl of SRB stock solution is carefully added so that the entire bottom of each well is covered. This again can be done using an 8 well multichannel pipettor. The SRB is incubated with fixed cells for 15 minutes at room temperature after which the SRB is removed with the manifold as described above and the plates washed twice with 350 μl of 1% acetic acid per well each time. The plates are then air dried after which the bound SRB is released from protein by the addition of 200 μl of Tris base. Resolubilizing the SRB is aided by placing the plates on a rotator for 15-30 minutes. The absorbance of each well is determined at 550 or 562 nm using a microtiter plate reader.
(§3) Each compound or dilution thereof is performed in triplicate. Outliers are identified by visual inspection of the data. Each plate should have a “0” control (vehicle only).
(§4) Quantitative Assay: A standard curve is constructed by plotting the concentration of compound against the average absorbance calculated at that concentration. A curve is plotted and the concentration at which the curve passes through the 50% the absorbance mark seen in the “0” control well is the IC50 calculated for that compound. Multiple entries for a given compound indicate that it is tested multiple times.

[2] = molecular target: T1, Raf and/or Mek kinase (human c-Raf, GST-MEK1) (Homo sapiens, UniProt P04049+Q02750); assay: Raf/Mek kinase cascade assay; format: biochemical; details: c-Raf dependent activation of GST-MEK and GST-MAPK, phospho-MAPK ELISA; (a)/(b)/(c) = average of two/three/four runs
T1 construct: Sf9 insect cell lysate containing full length 6his-tagged recombinant human c-Raf; 6His; host or cells: Sf9 insect cells (c-Raf, used as lysate); E. coli (MEK1-GST, GST-MAPK)
T1 sequence (P04049 whole entry): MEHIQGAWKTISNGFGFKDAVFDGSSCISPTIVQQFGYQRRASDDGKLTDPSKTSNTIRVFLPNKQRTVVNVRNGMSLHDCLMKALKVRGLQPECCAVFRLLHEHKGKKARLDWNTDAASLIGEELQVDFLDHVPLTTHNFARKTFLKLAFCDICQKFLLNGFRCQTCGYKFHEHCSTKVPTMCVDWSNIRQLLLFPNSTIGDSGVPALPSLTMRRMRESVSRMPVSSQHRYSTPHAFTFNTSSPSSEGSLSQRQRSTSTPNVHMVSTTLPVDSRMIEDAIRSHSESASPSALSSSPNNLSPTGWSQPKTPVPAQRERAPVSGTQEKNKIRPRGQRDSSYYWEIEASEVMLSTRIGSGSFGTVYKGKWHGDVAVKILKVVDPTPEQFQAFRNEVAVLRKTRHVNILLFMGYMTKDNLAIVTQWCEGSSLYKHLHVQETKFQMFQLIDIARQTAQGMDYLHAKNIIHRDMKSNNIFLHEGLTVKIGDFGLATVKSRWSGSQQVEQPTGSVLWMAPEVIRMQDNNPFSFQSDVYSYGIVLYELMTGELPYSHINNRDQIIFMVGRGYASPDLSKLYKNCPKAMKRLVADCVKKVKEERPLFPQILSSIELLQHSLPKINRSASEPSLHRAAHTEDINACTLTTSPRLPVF
T1 sequence (Q02750 whole entry): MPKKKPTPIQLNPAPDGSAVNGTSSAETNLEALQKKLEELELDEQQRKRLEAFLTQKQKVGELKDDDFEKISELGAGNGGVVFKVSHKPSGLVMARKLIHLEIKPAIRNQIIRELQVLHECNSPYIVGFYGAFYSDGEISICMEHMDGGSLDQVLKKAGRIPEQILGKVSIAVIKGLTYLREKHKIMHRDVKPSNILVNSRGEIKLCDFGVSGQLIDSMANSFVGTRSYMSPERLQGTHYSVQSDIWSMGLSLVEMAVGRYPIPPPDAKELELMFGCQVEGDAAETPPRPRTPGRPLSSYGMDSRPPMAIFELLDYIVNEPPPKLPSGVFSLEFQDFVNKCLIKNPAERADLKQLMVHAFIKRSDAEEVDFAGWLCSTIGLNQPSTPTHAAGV
Method: Raf/Mek Kinase Cascade Assay Procedure
(Specific Activity: ˜200 U/ml). Human Non-active Mek-1-GST and human GST-MAP kinase (recombinant proteins produced in E. coli).
Stock Solutions Raf/Mek Cascade Assay:
• 1. Assay Dilution Buffer (ADB): 20 mM MOPS, pH 7.2, 25 mM β-glycerol phosphate, 5 mM EGTA, 1 mM sodium orthovanadate, 1 mM dithiothreitol; • 2. Magnesium/ATP Cocktail: 500 μM cold ATP and 75 mM magnesium chloride in ADB; • 3. Active Kinase: Human Active c-Raf: Use at 0.4 U per assay point; • 4. Non-active GST-MEK1: Use at 0.1 μg per assay point; and • 5. Non-active GST-p42 MAP Kinase: Use at 1.0 μg per assay point. Stock Solutions ELISA: • 1. TBST-Tris (50 mM, pH 7.5), NaCl (150 mM), Tween-20 (0.05%); • 2. Superblock (Pierce); • 3. Anti-GST Ab (Pharmacia); • 4. Anti-Phospho MAPK (Sigma); and • 5. Anti-Mouse Ab/Europium conjugate (Wallac). Assay Procedure: First Stage: c-Raf Dependent Activation of GST-MEK and GST-MAPK • 1. Add […] of ADB per assay (i.e. per well of a 96 well plate); • 2. Add 10 ml of 0.5 mM cold ATP and 75 mM magnesium chloride in ADB; • 3. Add 2 ml of c-Raf (0.4 U/assay), in conjunction with 1.6 ml non-active MEK1 (0.4 […]/assay); • 4. Add 4 ml of non-active GST-p42 MAP Kinase (1.0 mg/assay); • 5. Incubate for 60 minutes at 30° C. in a shaking incubator; • 6. Transfer this mixture to an anti-GST Ab coated 96 well plate (Nunc Immunosorb plates coated o/n with a-GST, then blocked with Pierce Superblock); • 7. Incubate for 60 minutes at 30° C. in a shaking incubator; • 8. Wash 3× with TBST, add Anti-Phospho MAPK (Sigma) (1:3000); • 9. Incubate for 60 minutes at 30° C. in a shaking incubator; • 10. Wash 3× with TBST, add Anti-Mouse Ab/Europium conjugate (Wallac) (1:500); • 11. Incubate for 60 minutes at 30° C. in a shaking incubator; • 12. Wash 3× with TBST, Read plates in Wallac Victor model Plate Reader; and • 13. Collect data analyze in Excel for single point and IC50 determinations.
Single point assay—% inhibition at […] (% Inhibition=1−cpd·treated sample/untreated control). IC50 determinations—done on compounds from single point assays with >80% inhibition. Typically, the Raf/Mek assay is run at compound concentrations from 10 μM to 1 nM in half log dilutions. (% inhibition is determined for each compound concentration). The results obtained measure Raf and/or Mek kinase inhibition, and for representative compounds of this invention are listed in Table 1.

[3] = tested on: LoVo; assay: Cell based screen for inhibitors of Raf and/or Mek kinase (SRB), LoVo; set-up: species or system human; details: Homo sapiens, 96 h, LoVo cells, four days incubation, (a)/(b)/(c) = average of two/three/five runs
Method: as §1
Cell Lines: Human adenocarcinoma cell line LoVo, known to be growth inhibited by low nM concentrations of a reference standard inhibitor of Ras and human adenocarcinoma cell line CaCo-2, known to be growth resistant to the same reference compound.
Cell Media: RPMI 1640 with 10% Fetal Bovine Serum supplemented with L-glutamine and Penicillin/Streptomycin.
as §2, §3, §4

[4] = molecular target: T2, p60c-src (Homo sapiens, UniProt P12931); assay: Src kinase test procedure (ELISA); format: biochemical; details: cdc2 substrate peptide, (a) = average of two runs
T2 construct: purchased Upstate Biotechnologies
T2 sequence (P12931 whole entry): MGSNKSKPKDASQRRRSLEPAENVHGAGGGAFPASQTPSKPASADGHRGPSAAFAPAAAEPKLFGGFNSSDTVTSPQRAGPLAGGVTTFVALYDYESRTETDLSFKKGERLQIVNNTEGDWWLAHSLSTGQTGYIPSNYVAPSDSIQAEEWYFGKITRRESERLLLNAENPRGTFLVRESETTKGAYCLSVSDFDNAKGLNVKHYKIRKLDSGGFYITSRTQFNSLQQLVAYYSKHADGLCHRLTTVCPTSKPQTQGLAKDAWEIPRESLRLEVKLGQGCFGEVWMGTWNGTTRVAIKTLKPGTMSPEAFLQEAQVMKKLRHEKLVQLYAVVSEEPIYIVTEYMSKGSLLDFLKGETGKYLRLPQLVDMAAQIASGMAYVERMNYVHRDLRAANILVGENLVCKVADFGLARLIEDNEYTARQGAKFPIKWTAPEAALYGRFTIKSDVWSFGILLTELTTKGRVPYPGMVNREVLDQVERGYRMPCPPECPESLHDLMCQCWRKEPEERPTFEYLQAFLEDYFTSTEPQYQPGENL
Method: Src Kinase Test Procedure
Inhibitors of p60^c-src (partially purified preparation purchased from Upstate Biotechnologies) tyrosine kinase activity are analyzed in an Elisa format. The Boehringer Mannheim Tyrosine Kinase Assay Kit (Catalog number 1-534505) with a cdc2 substrate peptide containing Tyr15 is used for the assay. HRP-conjugated anti-phosphotyrosine is used to detect phosphorylated peptide via a color reaction. Conditions recommended by the manufacturer are employed.
Reaction conditions: Five microliter aliquots of each compound prepared fresh at the time of the assay are added as a solution in 10 mM HEPES pH 7.5, 10% DMSO to the reaction well. Thirty-five microliters of reaction mix containing Src, buffer and peptide/bovine serum albumin mix are added to the compound wells and incubated at 30° C. for 10 minutes (reaction buffer: 50 mM Tris HCl pH 7.5, 10 mM MgCl2, 0.1 mM EGTA, 0.5 mM Na3VO4). The reaction is started by addition of 10 microliters of ATP, incubated at 30° C. for 1 hour, and stopped by addition of 20 microliters of 0.5M EDTA. The reaction mixture with the phosphorylated peptide is then transferred to a streptavidin-coated microtiter plate (provided in the kit) and allowed to bind for 20 minutes. Unbound peptide and reaction mixture is decanted and the plate is washed with PBS six times. Horseradish peroxidase-conjugated phosphotyrosine antibody supplied in the kit is incubated with the plate for one hour, then decanted. The plate is again ished with PBS six times. Substrate (provided in the kit) is added and absorbance at 405 nm is measured.
Activity is determined as % inhibition as calculated by the formula: (1−Abs/Abs(max))×100=% inhibition. Where multiple concentrations of the test agent are used, an IC50 (concentration which gives 50% inhibition) could be determined.

[5] = tested on: Rat2 fibroblasts transformed with v-Src/Hu c-Src fusion gene; assay: Anchorage independent Src-transformed fibroblast proliferation; format: cell-based; details: Rattus norvegicus, 120 h, suspension growth, MTS on Day 5, read-out: Src TF prolif IC50
Method: Anchorage Independent Src-transformed Fibroblast Proliferation Test Procedure: Rat2 fibroblasts stably transformed with a plasmid containing a CMV promotor controlled v-Src/Hu c-Src fusion gene in which the catalytic domain of human c-Src is inserted in place of the v-Src catalytic domain in the v-Src gene are used for the measurement of src dependent suspension growth. Ultra-low cluster plates (Costar #3474) are seeded with 10,000 cells per well on Day 1.

Row | Structure (SMILES) | melting point | IC50 [1] | IC50 [2] | IC50 [3] | IC50 [4] | IC50 [5]
1 | COc1cc2c(Nc3ccc(Sc4ccccn4)cc3)c(C#N)cnc2cc1N1CCC(N2CCCC2)CC1 [Example 13, 6-Methoxy-4-[4-(pyridin-2-ylsulfanyl)phenylamino]-7-(4-pyrrolidin-1-yl-piperidin-1-yl)-quinoline-3-carbonitrile] | 182 to 184 °C | 600 nM | 1430 nM | 470 nM | – | –
2 | COc1cc2c(Nc3ccc(Sc4nccn4C)c(Cl)c3)c(C#N)cnc2cc1N1CCC(N2CCCC2)CC1 [Example 11, 4-({3-chloro-4-[(1-methyl-1H-imidazole-2-yl)thio]phenyl}amino)-6-methoxy-7-(4-pyrrolidin-1-ylpiperidin-1-yl)quinoline-3-carbonitrile] | 225 to 229 °C | 42 nM | 114 nM | 29 nM | 281 nM | –
3 | COc1cc2c(Nc3ccc(Oc4cccnc4)cc3)c(C#N)cnc2cc1N1CCC(N2CCCC2)CC1 [Example 15, 6-Methoxy-4-[4-(pyridin-3-yloxy)-phenylamino]-7-(4-pyrrolidin-1-yl-piperidin-1-yl)-quinoline-3-carbonitrile] | 194 to 196 °C | 360 nM | 1720 nM | 261 nM | – | –
4 | COc1cc2c(Nc3ccc(Sc4ccccn4)c(Cl)c3)c(C#N)cnc2cc1N1CCC(N2CCCC2)CC1 [Example 14, 4-[3-Chloro-4-(pyridin-2-ylsulfanyl)-phenylamino]-6-methoxy-7-(4-pyrrolidin-1-yl-piperidin-1-yl)-quinoline-3-carbonitrile] | 203 to 205 °C | 300 nM | 795 nM | 370 nM | – | –
5 | CCOc1cc2c(Nc3ccc(Sc4nccn4C)c(Cl)c3)c(C#N)cnc2cc1N1CCC(N2CCCC2)CC1 [Example 18, 4-({3-chloro-4-[(1-methyl-1H-imidazole-2-yl)thio]phenyl}amino)-6-ethoxy-7-(4-pyrrolidin-1-ylpiperidin-1-yl)quinoline-3-carbonitrile] | 203 to 207 °C | 30 nM | 75 nM | 27 nM | – | –

More lines, main results first:

Row | melting point | IC50 [1] | IC50 [2] | IC50 [3] | IC50 [4] | Structure (SMILES) | IC50 [5]
6 | 242 to 250 °C | 30 nM | 220 nM | 14 nM | – | CNc1cc2c(Nc3ccc(Sc4nccn4C)c(Cl)c3)c(C#N)cnc2cc1N1CCC(N2CCCC2)CC1 [Example 30, 4-({3-Chloro-4-[(1-methyl-1H-imidazole-2-yl)thio]phenyl}amino)-6-(methylamino)-7-(4-pyrrolidin-1-ylpiperidin-1-yl)quinoline-3-carbonitrile] | –
7 | 225 to 227 °C | – | – | – | – | COc1cc(Nc2c(C#N)cnc3cc(N4CCC(N5CCCC5)CC4)c(OC)cc23)c(Cl)cc1Cl [Example 31, 4-[(2,4-dichloro-5-methoxyphenyl)amino]-6-methoxy-7-(4-pyrrolidin-1-ylpiperidin-1-yl)quinoline-3-carbonitrile] | 2400 nM
8 | 235 to 237 °C | 38 nM | 293 nM | 22 nM | – | COc1cc2c(Nc3ccc(Sc4nccn4C)c(Cl)c3)c(C#N)cnc2cc1N1CCC(N2CCN(C)CC2)CC1 [Example 20, 4-({3-Chloro-4-[(1-methyl-1H-imidazole-2-yl)thio]phenyl}amino)-6-methoxy-7-[4-(4-methylpiperazin-1-yl)piperidin-1-yl]quinoline-3-carbonitrile] | –
